Data: article PMC12474366, “Metabolic Profiling, Tissue Distribution, and Tolerance Assessment of Bopu Powder in Laying Hens Following Long-Term Dietary Administration” (Veterinary Sciences, 2025)
Where “and” joins values, the source holds several entries; their conditions need not be identical. Identical values can stand only once. Like-named read-outs stand apart in the source and are kept apart here.

What was measured:
[1] = in vivo, iv, 1 mg/kg
Description: (§1) Nine hens were allocated to the metabolic study. These birds were randomly divided into three groups (n = 3 per group): the blank control group, the PRO group, and the ALL group.
(§2) Plasma: Blood samples were collected from the subcutaneous ulnar vein at 5, 10, 20, 30, 60, and 120 min post-administration. Samples were centrifuged at 4 °C and 3200× g for 10 min. The supernatant (plasma) was collected and stored at −80 °C for subsequent metabolite analysis.
(§3) Feces: Feces were collected over the intervals 0–6 h, 6–12 h, 12–24 h, and 24–48 h following intravenous administration. All fecal samples were immediately stored at −80 °C.
(§4) Plasma: Plasma samples stored at −80 °C were thawed at room temperature. A pooled plasma sample was prepared by combining equal volumes of plasma from each designated collection timepoint. A 200 μL aliquot of this pooled plasma was precisely transferred into a 1.5 mL microcentrifuge tube. Subsequently, 800 μL of acetonitrile was added to precipitate proteins, and the mixture was vortex-mixed vigorously for 2 min. Following protein precipitation, the tube was sealed and sonicated for 20 min. The sample was then centrifuged at 12,000× g for 10 min. The resulting supernatant was carefully collected and evaporated to dryness under a gentle stream of nitrogen at room temperature. The dried residue was reconstituted in 200 μL of acetonitrile, vortex-mixed for 2 min, and centrifuged again at 12,000× g for 5 min. Finally, the supernatant was filtered through a 0.22 μm organic membrane filter prior to LC-MS/MS analysis.
(§5) Feces: Fecal samples stored at −80 °C were thawed at room temperature and homogenized. A 2.00 g aliquot of the homogenized feces was accurately weighed into a 50 mL centrifuge tube. Ten milliliters of acetonitrile, serving as the extraction solvent, was added to the sample, which was then vortex-mixed for 5 min. The tube was sealed and subjected to sonication for 20 min.

[2] = system: carbon tetrachloride, acetaminophen, and simvastatin-induced hepatotoxicity; parameters: method as in PMID 9782072; conditions: PRO 11–22 mg/kg body weight; cited from earlier work
[3] = rat, in vivo; cited from earlier work
[4] = cited from earlier work
[5] = cited from earlier work; remark: listed apart in the source
[6] = parameters: method as in doi:10.19378/j.issn.1003-9783.2020.12.010; conditions: rats, oral administration of ALL; cited from earlier work
[7] = Residues of PRO and ALL in laying hens' tissues and eggs after 56-day dietary Bopu Powder (LC-QQQ-MS); conditions: mean ± sd; for concentration at 56 days: female, Roman Gray, chicken (laying hens), in vivo, n = 6, LOD 1 ng/g wet weight
Description: Throughout the experimental period, the hens were housed in cages under standard laboratory conditions, with ad libitum access to feed and water. Following a 7-day acclimatization period, standardized feeding regimens and routine health management procedures, including biosecurity protocols, were implemented. […] Three experimental groups were established: CN (control, no additive), BP (50 mg/kg additive), and BPX (500 mg/kg additive). The study employed a randomized design with 6 replicates per group and 18 hens per replicate. The feeding trial duration was 56 days.
Additionally, at the end of week 8, from each replicate group, one hen was randomly selected. A 10 mL blood sample was collected from the subcutaneous ulnar vein; 5 mL was transferred into an EDTA-K2 anticoagulant tube, gently mixed, and centrifuged at 3000× g for 10 min. The separated plasma was transferred into EP tubes (Eppendorf tubes) and stored at −20 °C for residue analysis.
Eggs: During weeks 4 and 8 of the trial, two eggs per replicate group, approximating the mean egg weight, were collected and stored at 4 °C until analysis.
Segments of jejunum, ileum, liver, ovary, oviduct, uterus, pectoral muscle, thigh muscle, gizzard, abdominal fat, and subcutaneous fat were individually wrapped in aluminum foil, flash-frozen in liquid nitrogen, and stored at −80 °C pending analysis.
Eggs: Two grams of homogenized whole egg liquid was transferred into a 50 mL centrifuge tube containing homogenization beads. Twenty microliters of the 1 mg/L internal standard (IS) working solution was precisely added, followed by vortex mixing for 30 s. Subsequently, 10 mL of acetonitrile was added and the mixture was vortex-mixed for 5 min to facilitate extraction. The sample was then centrifuged at 8000× g for 5 min. Five milliliters of the resulting supernatant was transferred to a ten-milliliter centrifuge tube, combined with three milliliters of n-hexane, and vortex-mixed for 1 min. After phase separation, the upper n-hexane layer was carefully removed using a rubber-bulb pipette. Then, 1 mL of the lower aqueous acetonitrile phase was collected, evaporated to dryness under a nitrogen stream, and reconstituted in 0.5 mL of acetonitrile with 30 s of vortex mixing. The final extract was filtered through a 0.22 μm organic solvent-compatible membrane prior to LC-MS/MS analysis. Only two quality control (QC) measures were implemented: parallel duplicate samples, and blank/carryover checks.
Tissues: Tissue samples stored at −80 °C were thawed to room temperature. Approximately 2 g of tissue was weighed into a 50 mL screw-cap centrifuge tube. Twenty microliters of freshly prepared 20 mg·L^−1 IS solution and 1 mL of physiological saline were added.

[8] = rat liver S9 fractions; cited from earlier work
[9] = Metabolite identification in plasma and feces after intravenous PRO or ALL (LC-Q-TOF-MS)
Description: as §1, §2, §3, §4, §5

[10] = parameters: method as in PMID 39805195; conditions: broiler hepatic microsomes, stable isotope tracing; cited from earlier work
[11] = porcine liver S9 fractions; cited from earlier work
[12] = BPX group: 500 mg/kg Bopu Powder in diet, 56 days, n = 6, LOD 1 ng/g wet weight

protopine
number of metabolites detected in fecal samples [1]: Eleven | number of metabolites detected in pooled plasma [1]: two | number of metabolites identified in plasma and feces [1]: 12 | hepatoprotective effect [2]: effectively counteracts carbon tetrachloride, acetaminophen, and simvastatin-induced hepatotoxicity | time until concentrations fell below LOQ (10 ng/mL) [3]: ≤ 8 h | highest residual level, liver at 48 h ([4]; rat, in vivo): 20.64 ng/g | highest residual level, spleen at 24 h ([4]; rat, in vivo): 44.04 ng/g | highest residue level, liver at 48 h (second statement) ([4]; rat, in vivo): 61.8 ng/g | residue levels in other tissues (second statement) ([4]; rat, in vivo): below 6.5 ng/g

COc1ccc2c(c1OC)CN(C)CCc1cc3c(cc1C(=O)C2)OCO3 [ALL, allocryptopine]
residues in eggs throughout ([5]; 400 mg/kg feed Bopu Powder, 7 days): undetectable | residual levels 1 day after withdrawal ([5]; 2000 mg/kg feed Bopu Powder, 7 days): 8.61 µg/kg | residues 7 days post-withdrawal ([5]; 2000 mg/kg feed Bopu Powder): residues persisted | number of metabolites identified, including isomers [6]: 25 | residues in kidney ([7]; BP group: 50 mg/kg Bopu Powder in diet, 56 days, n = 6, LOD 1 ng/g wet weight): 6.59 ± 4.61 ng/g | residues in eggs [7, 12]: 12.29 ng/g and 12.29 ± 4.69 ng/g | residues in kidney [7, 12]: 7.92 ± 4.12 ng/g | residues in liver [7, 12]: 56.14 ± 9.39 ng/g | concentration at 56 days ([7]; 50 mg/kg, residues in kidney, BP group: 50 mg/kg Bopu Powder in diet): 6.59 ng/g | concentration at 56 days ([7]; 500 mg/kg, residues in kidney, BPX group: 500 mg/kg Bopu Powder in diet): 7.92 ng/g | concentration at 56 days ([7]; 500 mg/kg, residues in liver, BPX group: 500 mg/kg Bopu Powder in diet): 56.1 ng/g | residues in urine, feces, plasma, and various tissues ([4]; rats, following ALL administration): < 3 ng/g | number of metabolites detected [8]: eight | number of metabolites detected in pooled plasma ([9]; intravenous 1 mg/kg bw, pooled plasma 5 to 120 min post-administration): seven | number of metabolites identified in plasma and feces ([9]; intravenous 1 mg/kg·bw, blood 5–120 min, feces 48 h collection): 9 | number of key metabolites identified [10]: five | number of metabolites detected [11]: four
